Laboratory results published in patent publication US10023565B2, “N,N′ substituted piperidinamine compounds, and preparation method and usage thereof” (Institute of Pharmacology and Toxicology Academy of …, priority 2013, dated 2018).
Where “and” joins values, the source holds several entries; their conditions need not be identical. Equal values may be shown once. Read-outs that look alike come from different tables or passages of the source.

Test: Mice pharmacokinetic evaluation (LC-MS/MS of plasma)
Type: in vivo, ICR mice
Conditions: for in vivo absorption and elimination: intragastric administration to mice
Procedure: Mice pharmacokinetic evaluation of the compound of Example 36 according to the method described below
ICR mice, SPS grade, male, weighed […], license number SCXK (Beijing) 2012-0001, purchased from Beijing Vital River Laboratory Animal Technology Co. Ltd.
Chromatographic conditions: Analytical column: Capcell Pak MG, 5 μm particle size, 50×2.0 mm I.D. (Shiseido Co.), connected with C18 guard column, 4×3.0 mm I.D. (PhenomenexCo., USA), column temperature 25° C., mobile phase: acetonitrile −2 mM ammonium acetate (65:35, v/v), flow rate 0.3 ml/min, internal standard: loratadine.
MS conditions: Electrospray ionization source (Turbo Ionspray source), positive ion mode detection; spray voltage 4500 V; source temperature 400° C.; nebulizer gas (NEB) 8; curtain gas (CUR) 10; collision gas (CAD) 4; scanning mode: multiple reaction monitoring (MRM), ion reactions for quantitative analysis: m/z 354.4→m/z 154.1 (Mol, CE 43 V) and m/z 383→m/z 337 (internal standard loratadine, CE 32 V), scanning time 150 msec.
To 50 μl of plasma, were added 10 μl of internal standard solution (125 ng/ml aqueous solution of loratadine), and 500 μl of n-hexane-dichloromethane-isopropanol (100:50:5, v/v/v); they were uniformly mixed, followed by vortexing for 3 min, and centrifuging for 10 min (3000 rpm); the supernatant was taken and blow dried with air streamat 40° C.; the residue was dissolved with 150 μl […], and subjected to LC-MS/MS analysis.
30 ICR male mice were randomly divided into […], five mices each group, including Mol 10 mg/kg oral group and 1.0 mg/kg tail intravenous injection group. For oral group, before administration, the animals were fasted for 12 h, with free access to water; 0.08, 0.25, 0.5, 1, 2, 4, 6, 8, 12 and 24 h after intragastrical administration, 0.1 ml of orbital venous sinus blood was taken, placed in anticoagulation tube containing heparin sodium, and subjected to 3000 g centrifugation for 15 min; and then, the plasma was taken and stored in a −20° C. refrigerator. […]
Pharmacokinetic parameters were calculated using non-compartment model of Winnonlin® software (Version 5.2.1, USA). Cmax is the measured maximum plasma concentration, Tmax is time to peak plasma concentration after oral administration, t1/2 is drug terminal elimination halflife, MRT is average residence time of drug in vivo, the area AUC0-t under plasma concentration—time curve is calculated by trapezoidal method.
Bioavailability is calculated as follows: […]
AUC: Area (h*ng/ml) under the curve; D: dose (mg/kg)

[1] = IV 1.0 mg/kg, individual mice 4-6, listed as Mol, 1 mg/kg
[2] = Po 10 mg/kg, individual mice 1-3, listed as Mol, 10 mg/kg
[3] = male, ICR, mouse, plasma, iv, 1 mg/kg, IV 1.0 mg/kg, Mean ± SD, n = 3
[4] = male, ICR, mouse, plasma, iv, 1 mg/kg, IV 1.0 mg/kg, individual mice 4-6

Compound: CSc1nccc(N2CCC(N(C)Cc3ccc(C#N)cc3)CC2)n1 [Example 36, N-methyl-N-(4-cyanobenzyl)-N-[1-(2-methylthiopyrimidin-4-yl)piperidin-4-yl]amine]
- Ke (IV 1.0 mg/kg, Mean ± SD, n = 3): 0.97 ± 0.88 h⁻¹
- AUC0-∞ [1]: 37.81 ng·h/mL and 58.27 ng·h/mL
- Cmax [1]: 63.90 ng/mL and 71.35 ng/mL
- Ke [1]: 1.98 h⁻¹ and 0.51 h⁻¹ and 0.43 h⁻¹
- MRT0-t [1]: 0.42 h and 1.02 h and 2.40 h
- MRT0-∞ [1]: 0.46 h and 1.35 h and 2.71 h
- Tmax [1]: 0.03 h (2×) and 0.08 h
- t1/2 [1]: 0.35 h and 1.37 h and 1.62 h
- F (bioavailability) (Po 10 mg/kg vs IV 1.0 mg/kg, individual mice 1-3, listed as Mol): 43.20% and 63.94% and 59.39%
- Ke (Po 10 mg/kg, Mean ± SD, n = 3): 0.43 ± 0.33 h⁻¹
- Cmax (Po 10 mg/kg, Mean ± SD, n = 3, listed as Mol, 10 mg/kg): 260.2 ± 63.19 ng/mL
- AUC0-∞ [2]: 317.86 ng·h/mL and 305.15 ng·h/mL
- Cmax [2]: 260.48 ng/mL and 323.37 ng/mL
- Ke [2]: 0.40 h⁻¹ and 0.77 h⁻¹ and 0.13 h⁻¹
- MRT0-t [2]: 1.26 h and 0.93 h and 2.56 h
- MRT0-∞ [2]: 1.34 h and 0.95 h and 3.57 h
- Tmax [2]: 0.08 h and 1.00 h and 0.25 h
- t1/2 [2]: 1.74 h and 0.90 h and 5.53 h
- in vivo absorption and elimination (10 mg/kg): in vivo absorption and elimination of the compound both are faster
- in vivo absorption and elimination (10 mg/kg, listed as Mol): the vivo absorption and elimination after intragastrical administration to mice both were quite fast
- Plasma concentration of active compound (intravenous 1.0 mg/kg, 0.03 h, individual mice 4-6, listed as Mol, 1 mg/kg): 99.34 ng/mL and 9.23 ng/mL and 71.35 ng/mL
- Plasma concentration of active compound (intravenous 1.0 mg/kg, 0.08 h, individual mice 4-6, listed as Mol, 1 mg/kg): 63.90 ng/mL and 63.03 ng/mL
- Plasma concentration of active compound (intravenous 1.0 mg/kg, 0.17 h, individual mice 4-6, listed as Mol, 1 mg/kg): 56.30 ng/mL and 52.58 ng/mL
- Plasma concentration of active compound (intravenous 1.0 mg/kg, 0.5 h, individual mice 4-6, listed as Mol, 1 mg/kg): 48.72 ng/mL and 24.29 ng/mL and 21.45 ng/mL
- Plasma concentration of active compound (intravenous 1.0 mg/kg, 1.0 h, individual mice 4-6, listed as Mol, 1 mg/kg): 10.10 ng/mL and 3.94 ng/mL and 7.02 ng/mL
- Plasma concentration of active compound (intravenous 1.0 mg/kg, 2.0 h, individual mice 4-6, listed as Mol, 1 mg/kg): 2.35 ng/mL and 0.95 ng/mL and 1.99 ng/mL
- Plasma concentration of active compound (intravenous 1.0 mg/kg, 4.0 h, individual mice 4-6, listed as Mol, 1 mg/kg): 2.23 ng/mL
- Plasma concentration of active compound (intravenous 1.0 mg/kg, 8.0 h, individual mice 4-6, listed as Mol, 1 mg/kg): 0.98 ng/mL
- AUC(0-inf) [3]: 51.2 ± 11.6 ng·h/mL
- AUC(0-t) [3]: 49.6 ± 11.4 ng·h/mL
- half-life [3]: 1.11 ± 0.67 h
- Cmax (male, ICR, mouse, plasma, iv, 1 mg/kg, IV 1.0 mg/kg, Mean ± SD, n = 3, read-out: Cmax): 78.1 ± 18.7 ng/mL
- MRT last (male, ICR, mouse, plasma, iv, 1 mg/kg, IV 1.0 mg/kg, Mean ± SD, n = 3, read-out: MRT0-t): 1.28 ± 1.01 h
- MRT inf (male, ICR, mouse, plasma, iv, 1 mg/kg, IV 1.0 mg/kg, Mean ± SD, n = 3, read-out: MRT0-∞): 1.51 ± 1.13 h
- Tmax (male, ICR, mouse, plasma, iv, 1 mg/kg, IV 1.0 mg/kg, Mean ± SD, n = 3, read-out: Tmax): 0.05 ± 0.03 h
- AUC(0-inf) [4]: 57.6 ng·h/mL
- AUC(0-t) [4]: 56.4 ng·h/mL
- Cmax (male, ICR, mouse, plasma, iv, 1 mg/kg, IV 1.0 mg/kg, individual mice 4-6, read-out: Cmax): 99.3 ng/mL
- concentration at 0.03 h (male, ICR, mouse, plasma, iv, 1 mg/kg, intravenous 1.0 mg/kg, 0.03 h, Mean, read-out: Plasma concentration of active compound): 60 ng/mL
- concentration at 0.08 h (male, ICR, mouse, plasma, iv, 1 mg/kg, intravenous 1.0 mg/kg, 0.08 h, Mean, read-out: Plasma concentration of active compound): 74.5 ng/mL
- concentration at 0.08 h (male, ICR, mouse, plasma, iv, 1 mg/kg, intravenous 1.0 mg/kg, 0.08 h, individual mice 4-6, read-out: Plasma concentration of active compound): 96.6 ng/mL
